Test results as given in US9216215B2, “Adjuvant system for vaccine adjuvant” (VAXFORM LLC, priority 2010, dated 2015).

Tests used:
[1] = Linkage of CTL receptor agonist to aluminum adjuvant (FIG. 2); type: physicochemical; conditions: aluminum oxyhydroxide
Description: However, monosaccharides can be modified by a chemical group including but not limited to fluoride, phosphate, sulfate, or carbonate group which permits a ligand exchange linkage of the molecule to the aluminum-containing adjuvant. Method for modifying saccharides by addition of fluoride, phosphate, sulfate, or carbonate groups is well known in the art (Cantos, et al. Biochem. J. (1993) 289: 155-160; Carbohydrate Chemistry, Royal Society of Chemistry, Ed. R D Guthrie (1968)). This is illustrated in FIG. 2 utilizing mannose as the CTL receptor agonist and aluminum oxyhydroxide. […] However, addition of a phosphate group at the 1 position of mannose (MIP) results in approximately 100% linkage of the CTL agonist to the aluminum adjuvant.
Another method to the increased avidity of the saccharide for the aluminum adjuvant particle is polymerization. For instance the avidity of the saccharide for the aluminum adjuvant particle may be increased by increasing the size of the saccharide by polymerization to produce a polysaccharide. The increase avidity for the aluminum adjuvant is due to the larger number of interactions of a polysaccharide as compared to a monosaccharide to allow for the stable linkage of the polysaccharide agonist to the aluminum adjuvant particle. […]

[2] = Stability of CTL agonist linkage to aluminum oxyhydroxide on exposure to phosphate (FIG. 3A, 3B); type: physicochemical; conditions: 50 mM phosphate pH 7.4 for 30 minutes, absence of antigen
Description: It is important to maintain the stability of the CTL agonist linkage to the aluminum particle upon exposure to body fluid following administration. Components of interstitial fluid such as phosphate, citrate, and protein have the potential to remove the linkage of the CTL agonist with aluminum-containing adjuvants. The resulting soluble CTL agonist may adversely impact the immune response. FIG. 3A illustrates that MIP as well as mannan maintain approximately 100% linkage with aluminum oxyhydroxide when exposed to 50 mM phosphate pH 7.4 for 30 minutes in the absence of antigen.

| Molecule | linkage of the CTL agonist to the aluminum adjuvant [1] | linkage with aluminum oxyhydroxide maintained [2] |
| --- | --- | --- |
| O=P(O)(O)OC1O[C@H](CO)[C@@H](O)[C@H](O)[C@@H]1O (stereo partly shown) [MIP, Mannose-1-phosphate] | approximately 100% | approximately 100% |
| mannan | approximately 100% | approximately 100% |
